# Results reported in US8901309B2, “Fused triazoles for the treatment or prophylaxis of mild cognitive impairment” (Takeda Pharmaceutical Company Limited, priority 2010, dated 2014).
# Tested on: Aβ42 in hippocampi of C57BL/6J mice
# Assay: Hippocampal soluble Aβ42 ELISA in mice after oral administration
# Type: in vivo, mouse
# Conditions: 10 mg/kg orally, hippocampi isolated 3 hours after administration, soluble Aβ42 by ELISA, 10 mg/kg
# Protocol: Measurement of Amyloid β Production Inhibition Rate Using Primary Nerve Cell
# C57BL/6J mice (7-10 weeks old) were purchased from CLEA Japan Inc. Mice were housed in groups and kept on a 12h-light; 12h-dark schedule. All mice were given ad libitum access to food and water.
# Each test compound was reconstituted in solubilization buffer ([DMSO (Wako)]: [10% Cremophor (Nakarai)+30% polyethylene glycol 400 (Wako)+60% 2 mol/L Citrate buffer (Wako)]=1:9) and orally administrated at 10 mg/kg.
# Hippocampi was isolated from animals, 3 hours after test compounds were orally administrated. Hippocampi were homogenized in ice-cold Tris-extraction buffer (50 mmol/L Tris-HCl, pH 7.2, 200 mmol/L sodium chloride, 2% protease-free bovine serum albumin, and 0.01% sodium merthiolate) containing protease inhibitor cocktails (Roche, Switzerland). After centrifugation at 15,000 rpm for 15 minutes, the supernatants were subjected to two-site sandwich ELISA to measure amount of soluble Aβ. Aβ42 was quantitated by two-site sandwich ELISA using BNT77, which recognizes Aβ11-28, as a capture antibody and BC05-HRP as a detector antibody, respectively.
row,SMILES,Aβ42 production inhibitory activity (% inhibition)
1,"COc1nc(-c2nnc3n2CCCC3(Oc2ccc(F)c(C(F)(F)F)c2)C(C)(C)O)ccc1-n1cnc(C)c1 (stereo not drawn) [Example 2, 2-{8-[4-fluoro-3-(trifluoromethyl)phenoxy]-3-[6-methoxy-5-(4-methyl-1H-imidazol-1-yl)pyridin-2-yl]-5,6,7,8-tetrahydro[1,2,4]triazolo[4,3-a]pyridin-8-yl}propan-2-ol]",48
2,"COc1cc(-c2nnc3n2CCCC3(Oc2ccc(F)c(F)c2)C(C)(C)O)ccc1-c1cnc(C)o1 (stereo not drawn) [Example 92, 2-{8-(3,4-difluorophenoxy)-3-[3-methoxy-4-(2-methyl-1,3-oxazol-5-yl)phenyl]-5,6,7,8-tetrahydro[1,2,4]triazolo[4,3-a]pyridin-8-yl}propan-2-ol]",32
3,"COc1cc(-c2nnc3n2CCCC3(Oc2ccc(C(F)(F)F)cc2)C(C)(C)O)ccc1-c1cnc(C)o1 (stereo not drawn) [Example 104, 2-{3-[3-methoxy-4-(2-methyl-1,3-oxazol-5-yl)phenyl]-8-[4-(trifluoromethyl)phenoxy]-5,6,7,8-tetrahydro[1,2,4]triazolo[4,3-a]pyridin-8-yl}propan-2-ol]",36
4,"COc1cc(-c2nnc3n2CCCC3(Oc2cccc(C(F)(F)F)c2)C(C)(C)O)ccc1-c1cnc(C)o1 (stereo not drawn) [Example 130, 2-{3-[3-methoxy-4-(2-methyl-1,3-oxazol-5-yl)phenyl]-8-[3-(trifluoromethyl)phenoxy]-5,6,7,8-tetrahydro[1,2,4]triazolo[4,3-a]pyridin-8-yl}propan-2-ol]",59
5,"COc1cc(-c2nnc3n2CCCC3(Oc2ccc(C(F)(F)F)cc2)C(C)(C)O)ccc1-c1cnc(C)o1 (stereo not drawn) [Example 132, 2-{3-[3-methoxy-4-(2-methyl-1,3-oxazol-5-yl)phenyl]-8-[4-(trifluoromethyl)phenoxy]-5,6,7,8-tetrahydro[1,2,4]triazolo[4,3-a]pyridin-8-yl}propan-2-ol]",58
6,"COc1cc(-c2nnc3n2CCCC3(Oc2cc(F)cc(F)c2)C(C)(C)O)ccc1-c1cnc(C)o1 (stereo not drawn) [Example 155, 2-{8-(3,5-difluorophenoxy)-3-[3-methoxy-4-(2-methyl-1,3-oxazol-5-yl)phenyl]-5,6,7,8-tetrahydro[1,2,4]triazolo[4,3-a]pyridin-8-yl}propan-2-ol]",56

# Same assay, conditions: Mus musculus, po, 3 h, 10 mg/kg orally, hippocampi isolated 3 hours after administration, soluble Aβ42 by ELISA, read-out: Aβ42 production inhibitory activity (% inhibition)
row,SMILES,inhibition in vivo at 10 mg/kg [%]
1,"COc1nc(-c2nnc3n2CCCC3(Oc2ccc(Cl)c(F)c2)C(C)(C)O)ccc1-n1cnc(C)c1 (stereo not drawn) [Example 1, 2-{8-(4-chloro-3-fluorophenoxy)-3-[6-methoxy-5-(4-methyl-1H-imidazol-1-yl)pyridin-2-yl]-5,6,7,8-tetrahydro[1,2,4]triazolo[4,3-a]pyridin-8-yl}propan-2-ol]",40
2,"COc1cc(-c2nnc3n2CCCC3(CC2CC2)c2ccc(F)c(F)c2)ccc1-c1cnc(C)o1 (stereo not drawn) [Example 21, optically active 8-(cyclopropylmethyl)-8-(3,4-difluorophenyl)-3-[3-methoxy-4-(2-methyl-1,3-oxazol-5-yl)phenyl]-5,6,7,8-tetrahydro[1,2,4]triazolo[4,3-a]pyridine]",39
3,"COc1cc(-c2nnc3n2CCCC3(Oc2cc(F)c(F)c(F)c2)C(C)(C)O)ccc1-c1cnc(C)o1 (stereo not drawn) [Example 99, 2-{3-[3-methoxy-4-(2-methyl-1,3-oxazol-5-yl)phenyl]-8-(3,4,5-trifluorophenoxy)-5,6,7,8-tetrahydro[1,2,4]triazolo[4,3-a]pyridin-8-yl}propan-2-ol]",34
4,"COc1cc(-c2nnc3n2CCCC3(Oc2cccc(C(F)(F)F)c2)C(C)(C)O)ccc1-c1cnc(C)o1 (stereo not drawn) [Example 103, 2-{3-[3-methoxy-4-(2-methyl-1,3-oxazol-5-yl)phenyl]-8-[3-(trifluoromethyl)phenoxy]-5,6,7,8-tetrahydro[1,2,4]triazolo[4,3-a]pyridin-8-yl}propan-2-ol]",42
5,"COc1cc(-c2nnc3n2CCCC3(Oc2ccc(Cl)c(F)c2)C(C)(C)O)ccc1-c1cnc(C)o1 (stereo not drawn) [Example 111, 2-{8-(4-chloro-3-fluorophenoxy)-3-[3-methoxy-4-(2-methyl-1,3-oxazol-5-yl)phenyl]-5,6,7,8-tetrahydro[1,2,4]triazolo[4,3-a]pyridin-8-yl}propan-2-ol]",46
6,"CCC(O)(CC)C1(Oc2ccc(Cl)c(F)c2)CCCn2c(-c3ccc(-c4cnc(C)o4)c(OC)c3)nnc21 (stereo not drawn) [Example 120, 3-{8-(4-chloro-3-fluorophenoxy)-3-[3-methoxy-4-(2-methyl-1,3-oxazol-5-yl)phenyl]-5,6,7,8-tetrahydro[1,2,4]triazolo[4,3-a]pyridin-8-yl}pentan-3-ol]",21
7,"COc1cc(-c2nnc3n2CCC[C@]3(Oc2cc(F)c(F)c(F)c2)C(C)(C)O)ccc1-c1cnc(C)o1 [Example 122, 2-{(8R)-3-[3-methoxy-4-(2-methyl-1,3-oxazol-5-yl)phenyl]-8-(3,4,5-trifluorophenoxy)-5,6,7,8-tetrahydro[1,2,4]triazolo[4,3-a]pyridin-8-yl}propan-2-ol]",54
8,"COc1cc(-c2nnc3n2CCCC3(Oc2ccc(F)c(F)c2)C(C)(C)O)ccc1-c1cnc(C)o1 (stereo not drawn) [Example 124, 2-{8-(3,4-difluorophenoxy)-3-[3-methoxy-4-(2-methyl-1,3-oxazol-5-yl)phenyl]-5,6,7,8-tetrahydro[1,2,4]triazolo[4,3-a]pyridin-8-yl}propan-2-ol]",41
9,"COc1cc(-c2nnc3n2CCCC3(COc2ccc(Cl)cc2)C(C)(C)O)ccc1-c1cnc(C)o1 (stereo not drawn) [Example 127, 2-{8-[(4-chlorophenoxy)methyl]-3-[3-methoxy-4-(2-methyl-1,3-oxazol-5-yl)phenyl]-5,6,7,8-tetrahydro[1,2,4]triazolo[4,3-a]pyridin-8-yl}propan-2-ol]",21
10,"COc1nc(-c2nnc3n2CCCC3(Oc2cc(F)c(F)c(F)c2)C(C)(C)O)ccc1-n1cnc(C)c1 (stereo not drawn) [Example 134, 2-{3-[6-methoxy-5-(4-methyl-1H-imidazol-1-yl)pyridin-2-yl]-8-(3,4,5-trifluorophenoxy)-5,6,7,8-tetrahydro[1,2,4]triazolo[4,3-a]pyridin-8-yl}propan-2-ol]",31
11,"COc1cc(-c2nnc3n2CCCC3(Oc2ccc(Cl)c(C(F)(F)F)c2)C(C)(C)O)ccc1-n1cnc(C)n1 (stereo not drawn) [Example 139, 2-{8-[4-chloro-3-(trifluoromethyl)phenoxy]-3-[3-methoxy-4-(3-methyl-1H-1,2,4-triazol-1-yl)phenyl]-5,6,7,8-tetrahydro[1,2,4]triazolo[4,3-a]pyridin-8-yl}propan-2-ol]",22
12,"COc1cc(-c2nnc3n2CCCC3(Oc2cc(F)cc(F)c2)C(C)(C)O)ccc1-c1cnc(C)o1 (stereo not drawn) [Example 141, 2-{8-(3,5-difluorophenoxy)-3-[3-methoxy-4-(2-methyl-1,3-oxazol-5-yl)phenyl]-5,6,7,8-tetrahydro[1,2,4]triazolo[4,3-a]pyridin-8-yl}propan-2-ol]",46
13,"COc1cc(-c2nnc3n2CCCC3(Oc2cc(F)c(F)c(F)c2)C(C)(C)O)ccc1-c1cnn(C)c1 (stereo not drawn) [Example 144, 2-{3-[3-methoxy-4-(1-methyl-1H-pyrazol-4-yl)phenyl]-8-(3,4,5-trifluorophenoxy)-5,6,7,8-tetrahydro[1,2,4]triazolo[4,3-a]pyridin-8-yl}propan-2-ol]",31
14,"COc1nc(-c2nnc3n2CCC[C@]3(Oc2cc(F)c(F)c(F)c2)C(C)(C)O)ccc1-n1cnc(C)c1 [Example 152, 2-{(8R)-3-[6-methoxy-5-(4-methyl-1H-imidazol-1-yl)pyridin-2-yl]-8-(3,4,5-trifluorophenoxy)-5,6,7,8-tetrahydro[1,2,4]triazolo[4,3-a]pyridin-8-yl}propan-2-ol]",57
15,"COc1nc(-c2nnc3n2CCCC3(Oc2ccc(F)c(C(F)(F)F)c2)C(C)(C)O)ccc1-n1cnc(C)c1 (stereo not drawn) [Example 157, 2-{8-[4-fluoro-3-(trifluoromethyl)phenoxy]-3-[6-methoxy-5-(4-methyl-1H-imidazol-1-yl)pyridin-2-yl]-5,6,7,8-tetrahydro[1,2,4]triazolo[4,3-a]pyridin-8-yl}propan-2-ol]",61
16,"COc1cc(-c2nnc3n2CCCC3(Oc2cc(F)c(F)c(F)c2)C(C)(C)O)c(F)cc1-c1cnc(C)o1 (stereo not drawn) [Example 162, 2-{3-[2-fluoro-5-methoxy-4-(2-methyl-1,3-oxazol-5-yl)phenyl]-8-(3,4,5-trifluorophenoxy)-5,6,7,8-tetrahydro[1,2,4]triazolo[4,3-a]pyridin-8-yl}propan-2-ol]",26
17,"COc1nc(-c2nnc3n2CCCC3(Oc2cc(F)c(F)c(F)c2)C(C)(C)O)ccc1-c1cnc(C)o1 (stereo not drawn) [Example 172, 2-{3-[6-methoxy-5-(2-methyl-1,3-oxazol-5-yl)pyridin-2-yl]-8-(3,4,5-trifluorophenoxy)-5,6,7,8-tetrahydro[1,2,4]triazolo[4,3-a]pyridin-8-yl}propan-2-ol]",35
18,"COc1cc(-c2nnn3c2CCCC3(Oc2cc(F)c(F)c(F)c2)C(C)(C)O)ccc1-c1cnc(C)o1 (stereo not drawn) [Example 186, 2-{3-[3-methoxy-4-(2-methyl-1,3-oxazol-5-yl)phenyl]-7-(3,4,5-trifluorophenoxy)-4,5,6,7-tetrahydro[1,2,3]triazolo[1,5-a]pyridin-7-yl}propan-2-ol]",22
